Measurements as given in the OPERA property sets (Mansouri et al. 2018).

| SMILES | logP |
| --- | --- |
| CC(C)(C)NCC(O)COC1CCCc2ccccc21 (stereo not given) | 3.55 |
| CC(C)C(=O)NCCNCC(O)COCc1ccccc1 (stereo not given) | 0.63 |
| CC(C)NCC(O)COCCc1ccccc1 (stereo not given) | 1.76 |
| CC(C)(C)NCC(O)COCCOc1ccccc1 (stereo not given) | 2.35 |
| CC(C)C(=O)NCCNCC(O)COC1CCCc2ccccc21 (stereo not given) | 1.99 |
| CC(C)NCC(O)COCCOc1ccccc1 (stereo not given) | 1.63 |
| CC(C)(C)NCC(O)COCc1ccccc1 (stereo not given) | 1.7 |
| O=C(Cc1ccccc1)NCCNCC(O)COCC=Cc1ccccc1 (stereo not given) | 1.76 |
| CC(C)NCC(O)COCCCC(C)c1ccccc1 (stereo not given) | 2.95 |
| CC(C)(C)NCC(O)COCCc1ccccc1 (stereo not given) | 2.52 |
| CC(C)C(=O)NCCNCC(O)COCCOc1ccccc1 (stereo not given) | 0.48 |
| CC(C)(C)NCC(O)COCC=Cc1ccccc1 (stereo not given) | 2.29 |
| O=C(Cc1ccccc1)NCCNCC(O)OCc1ccccc1 (stereo not given) | 1.05 |

Second part, the compound after the results:

| logP | SMILES |
| --- | --- |
| 1.62 | O=C(Cc1ccccc1)NCCNCC(O)COCCCc1ccccc1 (stereo not given) |
| 1.62 | CC(C)NCC(O)COCc1ccccc1 (stereo not given) |
| 2.15 | CC(C)NCC(O)COCC=Cc1ccccc1 (stereo not given) |
| 0.63 | O=C(Cc1ccccc1)NCCNCC(O)COc1ccccc1 (stereo not given) |
| 0.95 | CC(C)C(=O)NCCNCC(O)COCCc1ccccc1 (stereo not given) |
| 1.24 | O=C(Cc1ccccc1)NCCNCC(O)COCCc1ccccc1 (stereo not given) |
| 1.5 | CC(C)(C)NCC(O)COc1ccccc1 (stereo not given) |
| 1.25 | CC(C)C(=O)NCCNCC(O)COCCCc1ccccc1 (stereo not given) |
| 0.75 | O=C(Cc1ccccc1)NCCNCC(O)COCCOc1ccccc1 (stereo not given) |
| 0.51 | CC(C)C(=O)NCCNCC(O)COCC=Cc1ccccc1 (stereo not given) |
| 1.68 | O=C(Cc1ccccc1)NCCNCC(O)COC1CCCc2ccccc21 (stereo not given) |
| 1.14 | CC(C)C(=O)NCCNCC(O)COc1ccccc1 (stereo not given) |
